Converted amounts (≈) assume the structure as drawn. One block for each molecule: values may come before it.
Columns and labels:
Experiment in all cases: ≥ marks a high value that may be exact or a test limit, other limits are often not marked, values filed in µg/mL are converted to µM
[1] = system: Escherichia coli ATCC 25726
[2] = system: Staphylococcus aureus ATCC 25923
[3] = system: Batrachochytrium dendrobatidis JEL-197
[4] = system: Candida albicans ATCC 90028
[5] = system: Pseudomonas aeruginosa 78073
[6] = system: Pseudomonas aeruginosa 78905
[7] = system: Pseudomonas aeruginosa 77733
[8] = system: Pseudomonas aeruginosa 77905
[9] = system: Pseudomonas aeruginosa 78078
[10] = system: Pseudomonas aeruginosa 87104
[11] = system: Pseudomonas aeruginosa 78888
[12] = system: Pseudomonas aeruginosa 77319
[13] = system: Pseudomonas aeruginosa ATCC 27853
[14] = system: Staphylococcus aureus NCTC 8325
[15] = system: Escherichia coli ATCC 25922
[16] = system: Pseudomonas aeruginosa 78327
[17] = system: Klebsiella pneumoniae KK3 9904
[18] = system: Enterobacter cloacae NHTCC 53001
[19] = system: Pseudomonas aeruginosa 78887
[20] = system: Staphylococcus epidermidis ATCC 12228
[21] = system: Salmonella enterica subsp. enterica serovar Typhimurium ATCC 14028
[22] = system: Klebsiella pneumoniae ATCC 10031
[23] = system: Staphylococcus aureus TK784
[24] = system: Bacillus subtilis ATCC 6633
[25] = system: Micrococcus luteus ATCC 10240
[26] = system: Shigella dysenteriae ATCC 9752
[27] = system: Staphylococcus aureus ATCC 6538P
[28] = system: Candida albicans ATCC 2002
[29] = system: Staphylococcus carnosus KHS
[30] = system: Bacillus licheniformis X39
[31] = system: Rhodococcus rhodochrous X15
[32] = system: Psychrobacter faecalis X29
[33] = system: Aeromonas caviae
[34] = system: Cryptococcus neoformans
[35] = system: Enterococcus faecalis
[36] = system: Nocardia brasiliensis
[37] = system: Escherichia coli
[38] = system: Microsporum canis
[39] = system: Trichophyton rubrum
[40] = system: Aspergillus niger
[41] = system: Trichophyton simii
[42] = system: Candida albicans
[43] = system: Aspergillus fumigatus

Compound: CC[C@H](C)[C@H](NC(=O)[C@H](CO)NC(=O)[C@@H]1CCCN1C(=O)[C@@H](NC(=O)[C@H](CC(C)C)NC(=O)CNC(=O)[C@@H](NC(=O)[C@H](CC(C)C)NC(=O)[C@@H](NC(=O)[C@@H]1CCCN1C(=O)[C@H](CC(C)C)NC(=O)[C@@H](N)Cc1ccccc1)C(C)C)[C@@H](C)O)[C@@H](C)O)C(=O)N[C@H](C(=O)N1CCC[C@H]1C(=O)N[C@@H](CCCCN)C(=O)N[C@@H](CC(C)C)C(=O)N[C@H](C(=O)N[C@H]1CSSC[C@@H](C(=O)O)NC(=O)[C@H](CCCCN)NC(=O)[C@H](CCCCN)NC(=O)[C@H]([C@@H](C)O)NC(=O)[C@H](CC(C)C)NC(=O)[C@H](CC(C)C)NC1=O)C(C)C)C(C)C [FLPVLTGLTPSIVPKLVCLLTKKC]
MIC [1]: ≥ 100 µM
MIC [2]: 50 µM (≈ 129 µg/mL)
MIC [3]: ≥ 50 µM
MIC [4]: ≥ 100 µM

Compound: CC[C@H](C)[C@H](NC(=O)[C@H](Cc1cnc[nH]1)NC(=O)[C@H](CCCCN)NC(=O)CNC(=O)[C@H](C)NC(=O)[C@@H](NC(=O)[C@H](CCCCN)NC(=O)[C@H](CC(C)C)NC(=O)[C@@H](NC(=O)CNC(=O)[C@H](CCCCN)NC(=O)[C@H](Cc1ccccc1)NC(=O)[C@H](CC(C)C)NC(=O)[C@H](CO)NC(=O)[C@H](CCSC)NC(=O)[C@H](CC(C)C)NC(=O)CN)C(C)C)[C@@H](C)O)C(=O)N[C@@H](Cc1ccccc1)C(=O)N[C@@H](CCCCN)C(=O)N[C@@H](CC(N)=O)C(=O)N[C@H](C(=O)NCC(=O)NCC(=O)N[C@@H](CO)C(=O)N[C@@H](CC(C)C)C(=O)N[C@@H](CC(C)C)C(=O)N[C@@H](CC(=O)O)C(=O)N[C@@H](CCC(N)=O)C(=O)N[C@@H](C)C(=O)N[C@@H](CCCCN)C(=O)N[C@H]1CSSC[C@@H](C(=O)O)NC(=O)[C@H](CCC(=O)O)NC(=O)CNC(=O)[C@H]([C@@H](C)O)NC(=O)[C@H]([C@@H](C)CC)NC(=O)[C@H](CCCCN)NC1=O)C(C)C [GLMSLFKGVLKTAGKHIFKNVGGSLLDQAKCKITGEC]
MIC [5]: 6 µM (≈ 23.4 µg/mL)
MIC [6]: 12 µM (≈ 46.7 µg/mL)
MIC [7]: 12 µM (≈ 46.7 µg/mL)
MIC [8]: 6 µM (≈ 23.4 µg/mL)
MIC [9]: 12 µM (≈ 46.7 µg/mL)
MIC [10]: 6 µM (≈ 23.4 µg/mL)
MIC [11]: 12 µM (≈ 46.7 µg/mL)
MIC [12]: 12 µM (≈ 46.7 µg/mL)
MIC [13]: 3 µM (≈ 11.7 µg/mL)
MIC [14]: 25 µM (≈ 97.3 µg/mL)
MIC [15]: 6 µM (≈ 23.4 µg/mL)
MIC [16]: 6 µM (≈ 23.4 µg/mL)
MIC [17]: 6 µM (≈ 23.4 µg/mL)
MIC [18]: 6 µM (≈ 23.4 µg/mL)
MIC [19]: 6 µM (≈ 23.4 µg/mL)
MIC [4]: ≥ 100 µM

Compound: CC[C@H](C)[C@H](NC(=O)[C@H](Cc1ccc(O)cc1)NC(=O)[C@H](Cc1cnc[nH]1)NC(=O)[C@H](CCCN=C(N)N)NC(=O)[C@H](CC(C)C)NC(=O)[C@H](C)NC(=O)[C@@H](NC(=O)[C@H](CC(C)C)NC(=O)[C@H](Cc1ccc(O)cc1)NC(=O)[C@H](CCCCN)NC(=O)[C@H](CC(N)=O)NC(=O)[C@H](CCSC)NC(=O)[C@H](CCC(=O)O)NC(=O)[C@H](CCC(=O)O)NC(=O)[C@@H]1CCCN1)[C@@H](C)O)C(=O)N[C@@H](CC(N)=O)C(=O)N[C@@H](CC(C)C)C(=O)N[C@H](C(=O)N[C@H](C(=O)N[C@@H](CCCN=C(N)N)C(=O)N[C@@H](CCC(N)=O)C(=O)N[C@@H](CCCN=C(N)N)C(=O)N[C@@H](Cc1ccc(O)cc1)C(N)=O)[C@@H](C)O)C(C)C [PEEMNKYLTALRHYINLVTRQRY]
MIC [33]: 13.7 µM (≈ 40 µg/mL)
MIC [34]: 6.87 µM (≈ 20 µg/mL)
MIC [35]: 3.44 µM (≈ 10 µg/mL)
MIC [36]: 6.87 µM (≈ 20 µg/mL)
MIC [37]: 3.44 µM (≈ 10 µg/mL)
MIC [38]: 3.44 µM (≈ 10 µg/mL)
MIC [39]: 5.16 µM (≈ 15 µg/mL)
MIC [40]: ≥ 34.4 µM
MIC [41]: 3.44 µM (≈ 10 µg/mL)
MIC [42]: 5.16 µM (≈ 15 µg/mL)
MIC [43]: 27.5 µM (≈ 80 µg/mL)

Further lines, results first:

MIC [20]: 2.84 µM (≈ 4 µg/mL)
MIC [21]: 2.84 µM (≈ 4 µg/mL)
MIC [22]: 1.42 µM (≈ 2 µg/mL)
MIC [23]: 5.67 µM (≈ 7.99 µg/mL)
MIC [13]: 5.67 µM (≈ 7.99 µg/mL)
MIC [15]: 2.84 µM (≈ 4 µg/mL)
MIC [24]: 1.42 µM (≈ 2 µg/mL)
MIC [25]: 2.84 µM (≈ 4 µg/mL)
MIC [26]: 1.42 µM (≈ 2 µg/mL)
MIC [27]: 1.42 µM (≈ 2 µg/mL)
Compound: CC(C)C[C@H](NC(=O)[C@H](CCCCN)NC(=O)[C@H](CCCCN)NC(=O)[C@H](CC(C)C)NC(=O)[C@H](CC(C)C)NC(=O)[C@H](CCCCN)NC(=O)[C@H](CCCCN)NC(=O)[C@H](CC(C)C)NC(=O)[C@H](Cc1c[nH]c2ccccc12)NC(=O)[C@H](CCCCN)NC(=O)[C@@H](N)CC(C)C)C(N)=O [LKWLKKLLKKL]

MIC [28]: 9.5 µM (≈ 15 µg/mL)
MIC [29]: 19 µM (≈ 30 µg/mL)
MIC [30]: 19 µM (≈ 30 µg/mL)
MIC [2]: 4.8 µM (≈ 7.58 µg/mL)
MIC [31]: 2.4 µM (≈ 3.79 µg/mL)
MIC [32]: ≥ 37.5 µM
Compound: CC[C@H](C)[C@H](NC(=O)[C@H](CCCCN)NC(=O)[C@H](CCCCN)NC(=O)[C@H](C)NC(=O)[C@H](CC(C)C)NC(=O)[C@H](CC(N)=O)NC(=O)[C@@H](NC(=O)[C@@H](NC(=O)[C@@H](NC(=O)[C@H](CC(N)=O)NC(=O)[C@H](CC(C)C)NC(=O)[C@@H](NC(=O)[C@@H](N)CC(N)=O)[C@@H](C)CC)[C@@H](C)O)[C@@H](C)CC)[C@@H](C)CC)C(=O)N[C@@H](CC(C)C)C(N)=O [NILNTIINLAKKIL]

Source: DBAASP
